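Values below derive from 48-hour exposures of cells grown in 96-well plates, with endpoints linearly interpolated between the two concentrations bracketing the appropriate inhibition level. GI50: concentration for 50% inhibition of growth. TGI marks complete inhibition of growth.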
Columns and labels:
Test in all cases: NCI-60 cell line screen, 48 h
UO-31 renal = tested on: UO-31 renal
UACC-62 melanoma = tested on: UACC-62 melanoma
SNB-75 CNS = tested on: SNB-75 CNS
TK-10 renal = tested on: TK-10 renal
BT-549 breast = tested on: BT-549 breast
NCI-H522 lung = tested on: NCI-H522 lung
U251 CNS = tested on: U251 CNS
SK-MEL-2 melanoma = tested on: SK-MEL-2 melanoma
OVCAR-5 ovarian = tested on: OVCAR-5 ovarian
MALME-3M melanoma = tested on: MALME-3M melanoma
EKVX NSCLC = tested on: EKVX NSCLC
MDA-MB-231 breast = tested on: MDA-MB-231 breast
DU-145 prostate = tested on: DU-145 prostate
HCC-2998 colon = tested on: HCC-2998 colon
ACHN renal = tested on: ACHN renal
SN12C renal = tested on: SN12C renal
KM12 colon = tested on: KM12 colon
MCF7 breast = tested on: MCF7 breast
NCI/ADR-RES ovarian = tested on: NCI/ADR-RES ovarian
OVCAR-8 ovarian = tested on: OVCAR-8 ovarian
SF-539 CNS = tested on: SF-539 CNS
COLO 205 colon = tested on: COLO 205 colon
CAKI-1 renal = tested on: CAKI-1 renal
SF-268 CNS = tested on: SF-268 CNS
SK-MEL-5 melanoma = tested on: SK-MEL-5 melanoma
SW-620 colon = tested on: SW-620 colon
HCT-116 colon = tested on: HCT-116 colon
SK-MEL-28 melanoma = tested on: SK-MEL-28 melanoma
K-562 leukemia = tested on: K-562 leukemia
CCRF-CEM leukemia = tested on: CCRF-CEM leukemia
OVCAR-3 ovarian = tested on: OVCAR-3 ovarian
NCI-H23 lung = tested on: NCI-H23 lung
HOP-62 NSCLC = tested on: HOP-62 NSCLC
NCI-H460 lung = tested on: NCI-H460 lung
HS 578T breast = tested on: HS 578T breast
HT29 colon = tested on: HT29 colon
SNB-19 CNS = tested on: SNB-19 CNS
IGROV1 ovarian = tested on: IGROV1 ovarian
HCT-15 colon = tested on: HCT-15 colon
MOLT-4 leukemia = tested on: MOLT-4 leukemia
MDA-MB-435 = tested on: MDA-MB-435
OVCAR-4 ovarian = tested on: OVCAR-4 ovarian
LOX IMVI melanoma = tested on: LOX IMVI melanoma
SF-295 CNS = tested on: SF-295 CNS
UACC-257 melanoma = tested on: UACC-257 melanoma
PC-3 prostate = tested on: PC-3 prostate
M14 melanoma = tested on: M14 melanoma
HL-60(TB) leukemia = tested on: HL-60(TB) leukemia
RPMI-8226 leukemia = tested on: RPMI-8226 leukemia
SR leukemia = tested on: SR leukemia
A498 renal = tested on: A498 renal
T-47D breast = tested on: T-47D breast
NCI-H226 lung = tested on: NCI-H226 lung
A549 NSCLC = tested on: A549 NSCLC
SK-OV-3 ovarian = tested on: SK-OV-3 ovarian
786-0 renal = tested on: 786-0 renal
RXF 393 renal = tested on: RXF 393 renal
HOP-92 NSCLC = tested on: HOP-92 NSCLC

## COc1ccccc1CNCCCN1C(=O)c2ccc3c4c(ccc(c24)C1=O)C(=O)N(CCCNCCCCNCCCN)C3=O
UO-31 renal
  GI50: 2660 nM
  TGI: 16200 nM
UACC-62 melanoma
  GI50: 362 nM
  TGI: 1690 nM
SNB-75 CNS
  GI50: 609 nM
  TGI: 1860 nM
TK-10 renal
  GI50: 959 nM
  TGI: 6280 nM
BT-549 breast
  GI50: 1700 nM
  TGI: 3570 nM
NCI-H522 lung
  GI50: 176 nM
  TGI: 362 nM
U251 CNS
  GI50: 339 nM
  TGI: 1300 nM
SK-MEL-2 melanoma
  GI50: 227 nM
  TGI: 591 nM
OVCAR-5 ovarian
  GI50: 2030 nM
  TGI: 11000 nM
MALME-3M melanoma
  GI50: 241 nM
  TGI: 546 nM
EKVX NSCLC
  GI50: 1390 nM
  TGI: 3220 nM
MDA-MB-231 breast
  GI50: 431 nM
  TGI: 10500 nM
DU-145 prostate
  GI50: 682 nM
  TGI: 2030 nM
HCC-2998 colon
  GI50: 295 nM
  TGI: 1060 nM
ACHN renal
  GI50: 747 nM
  TGI: 4440 nM
SN12C renal
  GI50: 319 nM
  TGI: 1500 nM
KM12 colon
  GI50: 338 nM
  TGI: 1460 nM
MCF7 breast
  GI50: 200 nM
  TGI: 466 nM
NCI/ADR-RES ovarian
  GI50: 2020 nM
  TGI: 7700 nM
OVCAR-8 ovarian
  GI50: 285 nM
  TGI: 2190 nM
SF-539 CNS
  GI50: 426 nM
  TGI: 1670 nM
COLO 205 colon
  GI50: 168 nM
  TGI: 317 nM
CAKI-1 renal
  GI50: 2600 nM
  TGI: 10400 nM
SF-268 CNS
  GI50: 333 nM
  TGI: 3610 nM
SK-MEL-5 melanoma
  GI50: 159 nM
  TGI: 302 nM
SW-620 colon
  GI50: 260 nM
  TGI: 1280 nM
HCT-116 colon
  GI50: 315 nM
  TGI: 1160 nM
SK-MEL-28 melanoma
  GI50: 388 nM
  TGI: 1440 nM
K-562 leukemia
  GI50: 302 nM
  TGI: 7050 nM
CCRF-CEM leukemia
  GI50: 425 nM
  TGI: 19900 nM
OVCAR-3 ovarian
  GI50: 261 nM
  TGI: 699 nM
NCI-H23 lung
  GI50: 356 nM
  TGI: 2050 nM
HOP-62 NSCLC
  GI50: 658 nM
  TGI: 2250 nM
NCI-H460 lung
  GI50: 360 nM
  TGI: 1500 nM
HS 578T breast
  GI50: 1340 nM
  TGI: 5490 nM
HT29 colon
  GI50: 287 nM
  TGI: 995 nM
SNB-19 CNS
  GI50: 574 nM
  TGI: 3970 nM
IGROV1 ovarian
  GI50: 359 nM
  TGI: 11100 nM
HCT-15 colon
  GI50: 1750 nM
  TGI: 5730 nM
MOLT-4 leukemia
  GI50: 570 nM
  TGI: 8310 nM
MDA-MB-435
  GI50: 213 nM
  TGI: 494 nM
OVCAR-4 ovarian
  GI50: 167 nM
  TGI: 319 nM
LOX IMVI melanoma
  GI50: 300 nM
  TGI: 1570 nM
SF-295 CNS
  GI50: 1060 nM
  TGI: 6790 nM
UACC-257 melanoma
  GI50: 176 nM
  TGI: 330 nM
PC-3 prostate
  GI50: 561 nM
  TGI: 5230 nM
M14 melanoma
  GI50: 645 nM
  TGI: 2080 nM
HL-60(TB) leukemia
  GI50: 409 nM
  TGI: 1690 nM
RPMI-8226 leukemia
  GI50: 626 nM
  TGI: 10800 nM
SR leukemia
  GI50: 322 nM
  TGI: > 23200 nM
A498 renal
  GI50: 1340 nM
  TGI: 3140 nM
T-47D breast
  GI50: 214 nM
  TGI: 490 nM
NCI-H226 lung
  GI50: 911 nM
  TGI: 2710 nM
A549 NSCLC
  GI50: 581 nM
  TGI: 2720 nM
SK-OV-3 ovarian
  GI50: 1950 nM
  TGI: 11100 nM
786-0 renal
  GI50: 1030 nM
  TGI: 3780 nM
RXF 393 renal
  GI50: 323 nM
  TGI: 1390 nM
HOP-92 NSCLC
  GI50: 670 nM
  TGI: 5230 nM

— PubChem BioAssay (NCI)
